Data as given in patent US20030153590A1, “Method of treating alcoholism or alcohol abuse” (OY CONTRAL PHARMA LTD, priority 2001, published 2003).

What was measured:
[1] = cited from earlier work
[2] = test system: HCE cell membranes; assay: In vitro permeation study, HCE cell membranes; details: HCE, Papp × water solubility
[3] = In vitro permeation study, HCE cell membranes; details: human
[4] = test system: subjects with impaired control of alcohol drinking; assay: Randomized, double-blind, placebo-controlled dose-response study of nalmefene once daily for 16 weeks; assay type: in vivo, human; details: for Spouse or significant other estimate of frequency of intoxication: At least once a week (number of subjects) / Spouse or significant other estimate of frequency of intoxication: At least once a week (share of subjects) / Spouse or significant other estimate of frequency of intoxication: Every day (number of subjects) / Spouse or significant other estimate of frequency of intoxication: Every day (share of subjects) / Spouse or significant other estimate of frequency of intoxication: Never (number of subjects) / Spouse or significant other estimate of frequency of intoxication: Never (share of subjects) / Spouse or significant other estimate of frequency of intoxication: Once or twice (number of subjects) / Spouse or significant other estimate of frequency of intoxication: Once or twice (share of subjects) / Spouse or significant other estimate of frequency of intoxication: Several times a month (number of subjects) / Spouse or significant other estimate of frequency of intoxication: Several times a month (share of subjects): week 16
Method: A randomized, double-blind, placebo-controlled, multicenter, parallel group, dose-response study was conducted comparing placebo and two doses of nalmefene.
The subjects were randomly allocated to receive placebo, 10 mg of nalmefene or 40 mg of nalmefene once daily for 16 weeks. […] During their participation in the study, the subjects were allowed to receive general counseling, but not any psychotherapy or other specific alcoholism treatment, including pharmacotherapy. The study consisted of a screening period (screening and inclusion visits) not exceeding 2 weeks, during which the eligibility of the study subjects were evaluated, and follow-up visits at 1, 3, 6, 9, 12, and 16 weeks after the study medication was started.
The alcohol consumption was assessed with the Time Line Follow Back Method. The primary efficacy variable was the number of Heavy Drinking Days (HDDs) per month (defined as 28 days). A Heavy Drinking Day (HDD) was defined as a day when a male subject consumed 5 or more, or a female subject consumed 4 or more standard drinks. A standard drink contains approximately 12 g of ethanol. Secondary efficacy measures included other drinking variables (number of Drinking Days (DDs), ratio of HDDs to DDs, total consumption, and maximum and average intensity of drinking), Obsessive Compulsive Drinking Scale (OCDS), Alcohol Dependence Scale (ADS) and Drinkers Inventory of Consequences -scale (DrInC), clinical laboratory markers (ALAT, GGT, CDT, and MCV) and collateral reports.
The monthly drinking of the subjects during the 12 weeks prior to the study was determined first to get a baseline. The total alcohol consumption was 25% higher in the FAH+ subject than in the FAH− subject. The number of HDDs and the number of DDs were at a similar level in all subgroups.
The estimate on the subject's frequency of intoxication by subject's spouse or significant other was obtained again at the end of the study. Within the FAH+ subjects, there were more subjects in nalmefene 40 mg groups in categories “never” and “once or twice” than in other groups, and no subjects in the categories “at least once a week” or “every day”.

[5] = test system: MDCK cell membranes; assay: In vitro permeation study, MDCK cell membranes; assay type: in vitro ADME, canine
Method: (§1) MDCK cells were seeded onto the coated filters at a concentration of about 100,000 cells/cm^2. The culture medium was both in apical and basolateral chambers during the whole culture period, and the culture medium was changed every day. The cells were confluent within three days. […] The incubator environment was the same as described above.
(§2) MDCK cells were used for the permeation study on the 4th day when the TER value was about 250 Ω×cm^2. HBSS (Gibco, Paisley, Skotlanti) /10 mM HEPES was used a buffer solution. The permeation study was performed as described above. All the permeation studies were performed at 37° C. using a horizontal plate mixer (Heidolph Inkubator 1000 and Titramax 1000; Heidolph Electro GmbH & Co., Kelheim, Germany). After the studies, TER was metered. The TER data were not changed during the permeability studies.
(§3) The apparent permeability coefficients were calculated as:
(§4) Papp=J/(C×S), (Equation 1)
(§5) Cs is the water solubility of nalmefene.

[6] = In vitro permeation study, MDCK cell membranes; assay type: in vitro ADME, canine; details: dog
Method: as §1, §2, §3, §4, §5

C=C1CC[C@@]2(O)[C@H]3Cc4ccc(O)c5c4[C@@]2(CCN3CC2CC2)[C@H]1O5 [nalmefene]
pKa [1]: 7.63
Maximal administration rate Jmax × 10^−6 ± SD ([2]; pH 6.5, n = 4): 879 ± 32 × 10^−6 mg/(cm^2 s)
Maximal administration rate Jmax × 10^−6 ± SD ([2]; pH 7.0, n = 4): 1072 ± 70 × 10^−6 mg/(cm^2 s)
Maximal administration rate Jmax × 10^−6 ± SD ([2]; pH 7.5, n = 4): 423 ± 19 × 10^−6 mg/(cm^2 s)
Maximal administration rate Jmax × 10^−6 ± SD ([2]; pH 8.0, n = 4): 6.0 ± 0.7 × 10^−6 mg/(cm^2 s)
Papp A→B at 180 min, 500 μM ([3]; pH 6.5): 7.86 ± 0.29 ×10⁻⁶ cm/s
Papp A→B at 180 min, 500 μM ([3]; pH 7): 12.1 ± 0.79 ×10⁻⁶ cm/s
Papp A→B at 180 min, 500 μM ([3]; pH 7.5): 13.3 ± 0.61 ×10⁻⁶ cm/s
Papp A→B at 180 min, 500 μM ([3]; pH 8): 13.6 ± 1.64 ×10⁻⁶ cm/s
number of HDDs ([4]; FAH+ subjects, 10 mg once daily): smaller reduction in the early phase of the treatment
total alcohol consumption and number of HDDs ([4]; FAH+ subjects, 10 mg, first month of treatment): positive tendency
Spouse or significant other estimate of frequency of intoxication: At least once a week (number of subjects) ([4]; FAH+ subjects, 10 mg): 4
Spouse or significant other estimate of frequency of intoxication: At least once a week (share of subjects) ([4]; FAH+ subjects, 10 mg): 21%
Spouse or significant other estimate of frequency of intoxication: Every day (number of subjects) ([4]; FAH+ subjects, 10 mg): 0
Spouse or significant other estimate of frequency of intoxication: Every day (share of subjects) ([4]; FAH+ subjects, 10 mg): 0%
Spouse or significant other estimate of frequency of intoxication: Never (number of subjects) ([4]; FAH+ subjects, 10 mg): 1
Spouse or significant other estimate of frequency of intoxication: Never (share of subjects) ([4]; FAH+ subjects, 10 mg): 5%
Spouse or significant other estimate of frequency of intoxication: Once or twice (number of subjects) ([4]; FAH+ subjects, 10 mg): 6
Spouse or significant other estimate of frequency of intoxication: Once or twice (share of subjects) ([4]; FAH+ subjects, 10 mg): 32%
Spouse or significant other estimate of frequency of intoxication: Several times a month (number of subjects) ([4]; FAH+ subjects, 10 mg): 8
Spouse or significant other estimate of frequency of intoxication: Several times a month (share of subjects) ([4]; FAH+ subjects, 10 mg): 42%
reduction of mean number of HDDs versus baseline ([4]; FAH+ subjects, 40 mg daily oral, 4th month of treatment): about 60%
ratio of the number of HDDs to DDs ([4]; FAH+ subjects, 40 mg daily, after treatment, baseline 85%): 43%
number of DDs ([4]; FAH+ subjects, 40 mg once daily): clear reduction
mean number of HDDs per month (28 days) ([4]; FAH+ subjects, 40 mg once daily oral, on treatment, baseline 14.5): 6.0
mean number of drinks (monthly total alcohol consumption) as % of baseline ([4]; FAH+ subjects, 40 mg, 4th month): about 40%
Spouse or significant other estimate of frequency of intoxication: At least once a week (number of subjects) ([4]; FAH+ subjects, 40 mg): 0
Spouse or significant other estimate of frequency of intoxication: At least once a week (share of subjects) ([4]; FAH+ subjects, 40 mg): 0%
Spouse or significant other estimate of frequency of intoxication: Every day (number of subjects) ([4]; FAH+ subjects, 40 mg): 0
Spouse or significant other estimate of frequency of intoxication: Every day (share of subjects) ([4]; FAH+ subjects, 40 mg): 0%
Spouse or significant other estimate of frequency of intoxication: Never (number of subjects) ([4]; FAH+ subjects, 40 mg): 3
Spouse or significant other estimate of frequency of intoxication: Never (share of subjects) ([4]; FAH+ subjects, 40 mg): 14%
Spouse or significant other estimate of frequency of intoxication: Once or twice (number of subjects) ([4]; FAH+ subjects, 40 mg): 9
Spouse or significant other estimate of frequency of intoxication: Once or twice (share of subjects) ([4]; FAH+ subjects, 40 mg): 41%
Spouse or significant other estimate of frequency of intoxication: Several times a month (number of subjects) ([4]; FAH+ subjects, 40 mg): 14
Spouse or significant other estimate of frequency of intoxication: Several times a month (share of subjects) ([4]; FAH+ subjects, 40 mg): 45%
mean number of heavy drinking days reduced by ([4]; FAH+ subjects, daily oral 40 mg, fourth month of treatment (as worded)): 40%
treatment effects on alcohol consumption versus placebo ([4]; FAH- subjects): not distinguishable from placebo
Spouse or significant other estimate of frequency of intoxication: At least once a week (number of subjects) ([4]; FAH- subjects, 10 mg): 1
Spouse or significant other estimate of frequency of intoxication: At least once a week (share of subjects) ([4]; FAH- subjects, 10 mg): 9%
Spouse or significant other estimate of frequency of intoxication: Every day (number of subjects) ([4]; FAH- subjects, 10 mg): 1
Spouse or significant other estimate of frequency of intoxication: Every day (share of subjects) ([4]; FAH- subjects, 10 mg): 9%
Spouse or significant other estimate of frequency of intoxication: Never (number of subjects) ([4]; FAH- subjects, 10 mg): 1
Spouse or significant other estimate of frequency of intoxication: Never (share of subjects) ([4]; FAH- subjects, 10 mg): 9%
Spouse or significant other estimate of frequency of intoxication: Once or twice (number of subjects) ([4]; FAH- subjects, 10 mg): 4
Spouse or significant other estimate of frequency of intoxication: Once or twice (share of subjects) ([4]; FAH- subjects, 10 mg): 36%
Spouse or significant other estimate of frequency of intoxication: Several times a month (number of subjects) ([4]; FAH- subjects, 10 mg): 4
Spouse or significant other estimate of frequency of intoxication: Several times a month (share of subjects) ([4]; FAH- subjects, 10 mg): 36%
Spouse or significant other estimate of frequency of intoxication: At least once a week (number of subjects) ([4]; FAH- subjects, 40 mg): 1
Spouse or significant other estimate of frequency of intoxication: At least once a week (share of subjects) ([4]; FAH- subjects, 40 mg): 8%
Spouse or significant other estimate of frequency of intoxication: Every day (number of subjects) ([4]; FAH- subjects, 40 mg): 1
Spouse or significant other estimate of frequency of intoxication: Every day (share of subjects) ([4]; FAH- subjects, 40 mg): 8%
Spouse or significant other estimate of frequency of intoxication: Never (number of subjects) ([4]; FAH- subjects, 40 mg): 2
Spouse or significant other estimate of frequency of intoxication: Never (share of subjects) ([4]; FAH- subjects, 40 mg): 15%
Spouse or significant other estimate of frequency of intoxication: Once or twice (number of subjects) ([4]; FAH- subjects, 40 mg): 3
Spouse or significant other estimate of frequency of intoxication: Once or twice (share of subjects) ([4]; FAH- subjects, 40 mg): 23%
Spouse or significant other estimate of frequency of intoxication: Several times a month (number of subjects) ([4]; FAH- subjects, 40 mg): 5
Spouse or significant other estimate of frequency of intoxication: Several times a month (share of subjects) ([4]; FAH- subjects, 40 mg): 38%
number of HDDs ([4]; FAH- subjects, nalmefene 10 mg or 40 mg once daily): no clear treatment effects
mean number of drinks (monthly total alcohol consumption) ([4]; FAH- subjects, throughout the study): remained almost unchanged
Maximal administration rate Jmax × 10^−6 ± SD ([5]; pH 6.5, n = 4, Papp × water solubility): 1273 ± 66 × 10^−6 mg/(cm^2 s)
Maximal administration rate Jmax × 10^−6 ± SD ([5]; pH 7.0, n = 4, Papp × water solubility): 1618 ± 14 × 10^−6 mg/(cm^2 s)
Maximal administration rate Jmax × 10^−6 ± SD ([5]; pH 7.5, n = 4, Papp × water solubility): 723 ± 34 × 10^−6 mg/(cm^2 s)
Maximal administration rate Jmax × 10^−6 ± SD ([5]; pH 8.0, n = 4, Papp × water solubility): 10.6 ± 1.1 × 10^−6 mg/(cm^2 s)
Papp A→B at 180 min, 500 μM ([6]; pH 6.5, n = 4, read-out: Permeability factor (Papp ± SD)): 11.4 ± 0.59 ×10⁻⁶ cm/s
Papp A→B at 180 min, 500 μM ([6]; pH 7.0, n = 4, read-out: Permeability factor (Papp ± SD)): 18.27 ± 0.16 ×10⁻⁶ cm/s
Papp A→B at 180 min, 500 μM ([6]; pH 7.5, n = 4, read-out: Permeability factor (Papp ± SD)): 22.7 ± 1.08 ×10⁻⁶ cm/s
Papp A→B at 180 min, 500 μM ([6]; pH 8.0, n = 4, read-out: Permeability factor (Papp ± SD)): 23.9 ± 2.49 ×10⁻⁶ cm/s
